Laboratory results as given in US7902373B2 (Pfizer Inc, priority 2006, dated 2011).

These compounds were tested against human recombinant H-PGDS (Homo sapiens, UniProt O60760) (assay: Fluorescence intensity h-PGDS TBA enzyme assay). Conditions: Examples up to 622 (and 3a, 3b).
Type: biochemical

Sequence of human recombinant H-PGDS (O60760 whole entry): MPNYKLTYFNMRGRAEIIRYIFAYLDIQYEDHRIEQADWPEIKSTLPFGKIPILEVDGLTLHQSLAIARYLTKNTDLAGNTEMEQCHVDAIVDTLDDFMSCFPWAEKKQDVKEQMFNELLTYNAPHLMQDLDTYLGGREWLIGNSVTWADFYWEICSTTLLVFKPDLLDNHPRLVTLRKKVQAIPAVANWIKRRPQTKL

Compound	IC50 [nM]
CC(=O)n1cc(CN2CCC(NC(=O)c3ccc(-c4cccc(F)c4)nc3)CC2)c2ccccc21 [Example 243, N-{1-[(1-Acetyl-1H-indol-3-yl)methyl]piperidin-4-yl}-6-(3-fluorophenyl)nicotinamide]	1.03
O=C(NC1CCN(Cc2c(F)cccc2F)CC1)c1ccc(-c2cccc(F)c2)nc1 [Example 244, N-[1-(2,6-Difluorobenzyl)piperidin-4-yl]-6-(3-fluorophenyl)nicotinamide]	0.288
COc1ccc(CN2CCC(NC(=O)c3ccc(-c4cccc(F)c4)nc3)CC2)cc1Br [Example 245, N-[1-(3-Bromo-4-methoxybenzyl)piperidin-4-yl]-6-(3-fluorophenyl)nicotinamide]	1.2
O=C(NC1CCN(Cc2cnc3ccccc3c2)CC1)c1ccc(-c2cccc(F)c2)nc1 [Example 246, 6-(3-Fluorophenyl)-N-[1-(quinolin-3-ylmethyl)piperidin-4-yl]nicotinamide]	1.97
COc1ccc(CN2CCC(NC(=O)c3ccc(-c4cccc(F)c4)nc3)CC2)cc1F [Example 247, N-[1-(3-Fluoro-4-methoxybenzyl)piperidin-4-yl]-6-(3-fluorophenyl)nicotinamide]	0.653
O=C(NC1CCN(Cc2cc(F)cc(F)c2)CC1)c1ccc(-c2cccc(F)c2)nc1 [Example 248, N-[1-(3,5-Difluorobenzyl)piperidin-4-yl]-6-(3-fluorophenyl)nicotinamide]	1.05
CCOc1cc(CN2CCC(NC(=O)c3ccc(-c4cccc(F)c4)nc3)CC2)ccc1OC [Example 249, N-[1-(3-Ethoxy-4-methoxybenzyl)piperidin-4-yl]-6-(3-fluorophenyl)nicotinamide]	1.17
Cc1nn(C)c(C)c1CN1CCC(NC(=O)c2ccc(-c3cccc(F)c3)nc2)CC1 [Example 250, 6-(3-Fluorophenyl)-N-{1-[(1,3-trimethyl-1H-pyrazol-4-yl)methyl]piperidin-4-yl}nicotinamide]	0.409
CC(C)(C)CN1CCC(NC(=O)c2ccc(-c3cccc(F)c3)nc2)CC1 [Example 251, N-[1-(2,2-Dimethylpropyl)piperidin-4-yl]-6-(3-fluorophenyl)nicotinamide]	0.623
O=C(NC1CCN(Cc2c[nH]c3ccc(F)cc23)CC1)c1ccc(-c2cccc(F)c2)nc1 [Example 252, N-{1-[(5-Fluoro-1H-indol-3-yl)methyl]piperidin-4-yl}-6-(3-fluorophenyl)nicotinamide]	0.865
CCOc1ccc(CN2CCC(NC(=O)c3ccc(-c4cccc(F)c4)nc3)CC2)cc1OC [Example 253, N-[1-(4-Ethoxy-3-methoxybenzyl)piperidin-4-yl]-6-(3-fluorophenyl)nicotinamide]	1.45
O=C(NC1CCN(Cc2c[nH]c(=O)[nH]c2=O)CC1)c1ccc(-c2cccc(F)c2)nc1 [Example 254, N-{1-[(2,4-Dioxo-1234-tetrahydropyrimidin-5-yl)methyl]piperidin-4-yl}-6-(3-fluorophenyl)nicotinamide]	1.68
O=C(NC1CCN(Cc2ccccc2OCCO)CC1)c1ccc(-c2cccc(F)c2)nc1 [Example 255, 6-(3-Fluorophenyl)-N-{1-[2-(2-hydroxyethoxy)benzyl]piperidin-4-yl}nicotinamide]	0.738
O=C(NC1CCN(Cc2cccc(OCCO)c2)CC1)c1ccc(-c2cccc(F)c2)nc1 [Example 256, 6-(3-Fluorophenyl)-N-{1-[3-(2-hydroxyethoxy)benzyl]piperidin-4-yl}nicotinamide]	0.397
COc1cc(CN2CCC(NC(=O)c3ccc(-c4cccc(F)c4)nc3)CC2)cc(Cl)c1O [Example 257, N-[1-(3-Chloro-4-hydroxy-5-methoxybenzyl)piperidin-4-yl]-6-(3-fluorophenyl)nicotinamide]	0.58
O=C(NC1CCN(Cc2ccc(OCCO)cc2)CC1)c1ccc(-c2cccc(F)c2)nc1 [Example 258, 6-(3-Fluorophenyl)-N-{1-[4-(2-hydroxyethoxy)benzyl]piperidin-4-yl}nicotinamide]	1.24
CS(=O)(=O)c1ccc(CN2CCC(NC(=O)c3ccc(-c4cccc(F)c4)nc3)CC2)cc1 [Example 259, 6-(3-Fluorophenyl)-N-{1-[4-(methylsulfonyl)benzyl]piperidin-4-yl}nicotinamide]	1.68
COc1ccc(CN2CCC(NC(=O)c3ccc(-c4cccc(F)c4)nc3)CC2)c(Cl)c1OC [Example 260, N-[1-(2-Chloro-3,4-dimethoxybenzyl)piperidin-4-yl]-6-(3-fluorophenyl)nicotinamide]	0.578
O=C(NC1CCN(Cc2cc3ccccc3nn2)CC1)c1ccc(-c2cccc(F)c2)nc1 [Example 261, N-[1-(Cinnolin-3-ylmethyl)piperidin-4-yl]-6-(3-fluorophenyl)nicotinamide]	1.48
Cc1nc2ccccc2nc1CN1CCC(NC(=O)c2ccc(-c3cccc(F)c3)nc2)CC1 [Example 262, 6-(3-Fluorophenyl)-N-{1-[(3-methylquinoxalin-2-yl)methyl]piperidin-4-yl}nicotinamide]	3.86

Compound	IC50 [nM]
O=C(NC1CCN(Cc2cnc3ccccc3n2)CC1)c1ccc(-c2cccc(F)c2)nc1 [Example 263, 6-(3-Fluorophenyl)-N-[1-(quinoxalin-2-ylmethyl)piperidin-4-yl]nicotinamide]	1.16
Cn1cc(CN2CCC(NC(=O)c3ccc(-c4cccc(F)c4)nc3)CC2)c(=O)n(C)c1=O [Example 264, N-{1-[(1,3-Dimethyl-2,4-dioxo-1,2,3,4-tetrahydropyrimidin-5-yl)methyl]piperidin-4-yl}-6-(3-fluorophenyl)nicotinamide]	2
COC(=O)c1ccc2c(CN3CCC(NC(=O)c4ccc(-c5cccc(F)c5)nc4)CC3)c[nH]c2c1 [Example 265, Methyl 3-{[4-({[6-(3-fluorophenyl)pyridin-3-yl]carbonyl}amino)piperidin-1-yl]methyl}-1H-indole-6-carboxylate]	4.29
Cc1nc(CN2CCC(NC(=O)c3ccc(-c4cccc(F)c4)nc3)CC2)c[nH]1 [Example 266, 6-(3-Fluorophenyl)-N-{1-[(2-methyl-1H-imidazol-4-yl)methyl]piperidin-4-yl}nicotinamide]	2.15
O=C(NC1CCN(Cc2cc(Cl)c(O)c(Cl)c2)CC1)c1ccc(-c2cccc(F)c2)nc1 [Example 267, N-[1-(3,5-Dichloro-4-hydroxybenzyl)piperidin-4-yl]-6-(3-fluorophenyl)nicotinamide]	0.994
CC(C)(CN1CCC(NC(=O)c2ccc(-c3cccc(F)c3)nc2)CC1)NC(=O)OC(C)(C)C [Example 268, tert-Butyl {2-[4-({[6-(3-fluorophenyl)pyridin-3-yl]carbonyl}amino)piperidin-1-yl]-1,1-dimethylethyl}carbamate]	8.08
CN(CCCN1CCC(NC(=O)c2ccc(-c3cccc(F)c3)nc2)CC1)C(=O)OC(C)(C)C [Example 269, tert-Butyl {3-[4-({[6-(3-fluorophenyl)pyridin-3-yl]carbonyl}amino)piperidin-1-yl]propyl}methylcarbamate]	3.5
Cc1c(CN2CCC(NC(=O)c3ccc(-c4cccc(F)c4)nc3)CC2)c(=O)n(C)c(=O)n1C [Example 270, 6-(3-Fluorophenyl)-N-{1-[(1,3,6-trimethyl-2,4-dioxo-1,2,3,4-tetrahydropyrimidin-5-yl)methyl]piperidin-4-yl}nicotinamide]	0.507
CCN(CC)C(=O)c1ccc(CN2CCC(NC(=O)c3ccc(-c4cccc(F)c4)nc3)CC2)cc1 [Example 271, N-(1-{4-[(Diethylamino)carbonyl]benzyl}piperidin-4-yl)-6-(3-fluorophenyl)nicotinamide]	5.62
O=C(NC1CCN(Cc2ccc[nH]c2=O)CC1)c1ccc(-c2cccc(F)c2)nc1 [Example 272, 6-(3-Fluorophenyl)-N-{1-[(2-oxo-1,2-dihydropyridin-3-yl)methyl]piperidin-4-yl}nicotinamide]	0.816
CN(C)CCCOc1ccccc1CN1CCC(NC(=O)c2ccc(-c3cccc(F)c3)nc2)CC1 [Example 273, N-(1-{2-[3-(Dimethylamino)propoxy]benzyl}piperidin-4-yl)-6-(3-fluorophenyl)nicotinamide]	1.11
CCn1nc(C)c(CN2CCC(NC(=O)c3ccc(-c4cccc(F)c4)nc3)CC2)c1C [Example 274, N-{1-[(1-Ethyl-3,5-dimethyl-1H-pyrazol-4-yl)methyl]piperidin-4-yl}-6-(3-fluorophenyl)nicotinamide]	2.57
O=C(NC1CCN(Cc2cnn(-c3ccc(F)cc3)c2)CC1)c1ccc(-c2cccc(F)c2)nc1 [Example 275, 6-(3-Fluorophenyl)-N-(1-{[1-(4-fluorophenyl)-1H-pyrazol-4-yl]methyl}piperidin-4-yl)nicotinamide]	5.49
CCn1cc(CN2CCC(NC(=O)c3ccc(-c4cccc(F)c4)nc3)CC2)c(C)n1 [Example 276, N-{1-[(1-Ethyl-3-methyl-1H-pyrazol-4-yl)methyl]piperidin-4-yl}-6-(3-fluorophenyl)nicotinamide]	0.743
CN(C)CC1(CN2CCC(NC(=O)c3ccc(-c4cccc(F)c4)nc3)CC2)CCCC1 [Example 277, N-[1-({1-[(Dimethylamino)methyl]cyclopentyl}methyl)piperidin-4-yl]-6-(3-fluorophenyl)nicotinamide]	5.72
CC(C)(C)OCCN1CCC(NC(=O)c2ccc(-c3cccc(F)c3)nc2)CC1 [Example 278, N-[1-(2-tert-Butoxyethyl)piperidin-4-yl]-6-(3-fluorophenyl)nicotinamide]	5.01
CC(C)(C)OC(=O)CCCN1CCC(NC(=O)c2ccc(-c3cccc(F)c3)nc2)CC1 [Example 279, tert-Butyl 4-[4-({[6-(3-fluorophenyl)pyridin-3-yl]carbonyl}amino)piperidin-1-yl]butanoate]	4.17
CS(=O)(=O)Nc1ccc(CN2CCC(NC(=O)c3ccc(-c4cccc(F)c4)nc3)CC2)cc1 [Example 280, 6-(3-Fluorophenyl)-N-(1-{4-[(methylsulfonyl)amino]benzyl}piperidin-4-yl)nicotinamide]	0.851
CC(C)(C)OC(=O)NCCCN1CCC(NC(=O)c2ccc(-c3cccc(F)c3)nc2)CC1 [Example 281, tert-Butyl {3-[4-({[6-(3-fluorophenyl)pyridin-3-yl]carbonyl}amino)piperidin-1-yl]propyl}carbamate]	1.8
